Measured values taken from US20170298056A1, “SMALL MOLECULE INHIBITORS OF HIV-1 ENTRY AND METHODS OF USE THEREOF” (Dana-Farber Cancer Institute, Inc., priority 2014, published 2017).

Columns and labels:
HIV-1ADA = assay: Viral infection assay, ADA Env (wild type, ΔV1V2, CD4-independent N197S); format: cell-based; conditions: for Fold change: mutant/wild-type IC50
Method: To study CD4-independent infection, the full-length HIV-1ADA N197S Env mutant was used. This Env is an ADA-HXBc2 chimera with an N197S change. The control “wild-type” ADA Env used in these experiments is also an ADA-HXBc2 chimera.
Production of recombinant HIV-1 expressing luciferase. […] After 48 hours, the supernatant was collected, buffered with 50 mM Hepes pH 7.4 (final concentration) and centrifuged for 5 minutes at 750×g and 4° C. The virus-containing supernatant was used directly or frozen at −80° C.
Viral infection assay. Each test compound was serially diluted in DMSO in a 96-well B&W isoplate (PerkinElmer, Boston, Mass.) using an HP D300 Digital Dispenser, to a final volume of 450 nl. DMSO was used as a control. Viruses pseudotyped with a specific Env were added to each well and incubated briefly at room temperature. Cf2Th-CD4/CCR5 cells were detached with StemPro Accutase Cell Dissociation Reagent (Invitrogen, cat #A11105-01), washed once, and 5000 cells were added to each well. […] Following incubation, the medium was aspirated and cells were lysed with 30 μl of Passive Lysis Buffer (Promega, cat #E1941). The activity of the firefly luciferase, which was used as a reporter protein in the system, was measured with a Centro LB 960 luminometer (Berthold Technologies, Oak Ridge, Tenn.). One hundred microliters of assay buffer (15 mM MgSO4, 15 mM KH2PO4/K2HPO4 pH 7.8, 1 mM ATP and 1 mM DTT) was injected to each well, followed by a 50 μl injection of 1 mM Dluciferin potassium salt (BD Pharmingen, San Jose, Calif.); luminescence was measured for 2 sec. Infection of PBMC was done as above, but 20,000-40,000 cells/well and viruses concentrated by ultracentrifugation were used. After four hours of incubation with viruses, the cells were centrifuged at 200×g for 6 minutes at 4° C., resuspended in 100 μl RPMI-PBMC medium and incubated at 37° C. for an additional 36-40 hours (total 40-44 hours). Supernatant was removed after centrifugation at 400×g for 5 minutes and cells were processed to detect luciferase activity, as described above.

HIV-1MN27 = assay: Viral infection assay, CXCR4-tropic virus, Cf2Th-CD4/CXCR4 cells; format: cell-based; conditions: HIV-1MN27, Cf2Th cells expressing CD4 and CXCR4
HIV-1JR-FL = assay: Infection of human PBMC by HIV-1JR-FL; format: cell-based; conditions: HIV-1JR-FL infection of human PBMC
Method: Peripheral blood mononuclear cells (PBMC). Human blood was purchased from Research Blood Components, who obtained a consent firm from each donor, according to the American Association of Blood Banks guidelines, PBMC were isolated from the whole blood using a Ficoll-Paque gradient (Ficoll-Paque PLUS, Amersham Biosciences) and activated at concentration of 10^6 live cells/ml for 3 days in RPMI-PBMC medium (RPMI-1640 supplemented with 20% FBS, 10% IL-2 (Hemagen, Columbia, Md.), 100 μg/ml primocin (InvivoGen, San Diego, Calif.)) with 4 μg/ml phytohemagglutinin (Sigma-Aldrich, St. Louis, Mo.). In some cases, cells were frozen, thawed and activated prior to the assay.
Viral infection assay. Each test compound was serially diluted in DMSO in a 96-well B&W isoplate (PerkinElmer, Boston, Mass.) using an HP D300 Digital Dispenser, to a final volume of 450 nl. DMSO was used as a control. […] The activity of the firefly luciferase, which was used as a reporter protein in the system, was measured with a Centro LB 960 luminometer (Berthold Technologies, Oak Ridge, Tenn.). One hundred microliters of assay buffer (15 mM MgSO4, 15 mM KH2PO4/K2HPO4 pH 7.8, 1 mM ATP and 1 mM DTT) was injected to each well, followed by a 50 μl injection of 1 mM Dluciferin potassium salt (BD Pharmingen, San Jose, Calif.); luminescence was measured for 2 sec. […]

[1] = test system: HIV-1JR-FLΔCT Env trimer (gp41 HR1); assay: CD4-induced gp41 HR1 exposure, C34-Ig binding (flow cytometry); conditions: 100 μM 18A prior to sCD4 addition; approx. 37% with sCD4 alone
Method: Flow cytometry. […] After 48-72 hours, cells were detached with 5 mM EDTA/PBS and between 0.5-1 million cells were briefly incubated with various concentrations of 18A and then with or without the indicated concentrations of sCD4. C34-Ig (at a final concentration of 20 μg/ml) or a specified antibody (at final concentration of 1 μg/ml) was added to the cells. […] Cells were washed twice and analyzed with a BD FACSCanto II flow cytometer (BD Biosciences). For analysis of resistant mutants (FIG. 5e-g), the measurements were normalized for the level of sCD4 binding of each mutant, and the response of each mutant was further normalized to that of the wild-type HIV-1JR-FL E168K+N188AΔCT Env (herein designated WTKA). […] The sCD4 IC50/sCD4 binding ratio (FIGS. 4c and e) was calculated as follows. Binding of sCD4 to different envelope mutants was measured by flow cytometry and normalized first to 2G12 binding to account for potentially different Env expression levels, and then to sCD4 binding to the wild-type HIV-1JR-FL Env. The IC50 of sCD4 for inhibition of virus infection by each mutant Env was divided by the normalized sCD4 binding to Env-expressing cells to calculate the sCD4 IC50/sCD4 binding value.

## O=C(N/N=C/c1ccc(O)cc1)Nc1cccc2nsnc12 [Compound 18A]
HIV-1ADA; ADA Env wild type
  IC50: 12.8 ± 1.5 µM
  Fold change: 1
HIV-1ADA; ADA Env ΔV1V2
  IC50: 10.8 ± 2 µM
  Fold change: 0.8
HIV-1ADA; CD4-independent HIV-ADA N197S
  infection of CD4-negative, CCR5-expressing cells: protected CD4-negative, CCR5-expressing cells from infection
HIV-1ADA; wild-type HIV-1ADA and HIV-1ADA N197S
  entry into CD4/CCR5-expressing cells: blocked by 18A with a similar profile of inhibition
HIV-1MN27
  IC50: ~25 µM
HIV-1JR-FL
  IC50: 0.4 µM
[1]
  cells binding C34-Ig: 4.7%
